In US20250282799A1, “SUBSTITUTED PYRIDO[4,3-d]PYRIMIDINES AS KRAS MODULATORS” (Alterome Therapeutics, Inc., priority 2023, published 2025):

System: KRAS G12V dependent lung adenocarcinoma cell line, NCI-H441
Experiment: Cellular pERK (Thr202/Tyr204) FRET/HTRF assay
Format: cell-based
Text: “Ras” refers to a protein in the Ras superfamily of small GTPases, such as in the Ras subfamily. […] The Ras proteins play a critical role in the regulation of cell behaviors, including proliferation, differentiation, and survival. […] KRAS G12V, G12D, and G12S variants are common in human cancers and Ras inhibitors binding in or near the Switch II pocket may provide mutant binding selectivity. RAS mutations are known to be often associated with pancreatic, colorectal and non-small-cell lung carcinomas (Lone, A. M. et al. J. Am. Chem. Soc. 2011,133, 11665-74, which is entirely incorporated herein by reference; Dillon, M. B.; Bachovchin, D. A.; Brown, S. J.; Finn, M. G.; Rosen, H.; Cravatt, B. F.; Mowen, K. A. ACS Chem. Biol. 2012, 7, 1198-204, which is entirely incorporated herein by reference; Bachovchin, D. A.; Brown, S. J.; Rosen, H.; Cravatt, B. F. Nat. Biotechnol. 2009, 27, 387-94, Ostrem, J. M.; Peters, U.; Sos, M. L.; Wells, J. A.; Shokat, K. M. Nature 2013, 503, 548-551. Ryan M. B. and Corcoran R. B, Nat. Rev Clin Onco. 2018, 11, 709-720.). Ras proteins are key members in the Ras/Raf/Mitogen-activated protein kinase (MAPK) signaling pathway. This pathway regulates a wide variety of cellular processes, including proliferation, differentiation, apoptosis, and stress responses. One way to measure the impact of an inhibitor of Ras proteins is to measure downstream phosphorylation of proteins in the MAPK pathway. The MAPK pathway includes extracellular signal-regulated kinases named ERK1 and ERK2, which are serine-threonine kinases that regulate cellular signaling under both normal and oncogenic conditions. ERK expression and hyperactivation via phosphorylation plays a major role in cancer progression and are downstream of Ras proteins. The assay used for measuring the downstream impact of Ras inhibition is the use of a highly sensitive cell-based readout of ERK phosphorylation (pERK) specifically on Threonine (Thr) 202 and Tyrosine (Tyr) 204 in a KRAS G12V dependent lung adenocarcinoma cell line, NCI-H441 (ATCC Cat #HTB-174). The assay described herein is suitable for assessing inhibition of Ras and can be tailored for any of the predominant oncogenic mutations in any isoform of Ras (e.g., KRAS, HRAS, and NRAS) by changing the cell line.
pERK was measured using an advanced pERK assay designed for the robust and highly sensitive quantification of ERK phosphorylation on Thr202/Tyr204. This assay is intended for the simple, rapid, and direct detection of endogenous levels of ERK1/2 in cells, but only when ERK is phosphorylated at Thr202 and Tyr204 (Perkin Elmer Catalog #64AERPEH). pERK was detected in a FRET based sandwich assay format using 2 different specific antibodies, one labelled with Eu3+-Cryptate (donor) and the second with d2 (acceptor). When the dyes are in close proximity, the excitation of the donor with a light source (laser or flash lamp) triggers a Fluorescence Resonance Energy Transfer (FRET) towards the acceptor, which in turn fluoresces at a specific wavelength (665 nm). The specific signal modulates positively in proportion to p-ERK1/2 (Thr202/Tyr204). The simple mix-and-read protocol eliminates all wash steps for faster analysis and high-quality output. Briefly, cells were diluted to the desired concentration per well based on a growth curve showing ˜75% confluence within a 24-hour time period at no less than 95% viability. Cell suspension (24 μL) were added into each well of 384-well culture plate and maintained in 37° C. 5% CO2 incubator overnight prior to assay. All compounds were transferred to stock plates using TECAN (EVO200) liquid handler using DMSO as the solubilizing and dilution agent. Test compounds were transferred onto adherent cells using an Echo655 liquid handler. DMSO was employed as negative control. Cells were incubated with test compounds for 1 hr in a 37° C., 5% CO2 incubator following compound addition. […]

[1] = Homo sapiens, NCI-H441, cellular pERK HTRF, NCI-H441 (KRAS G12V) cells
[2] = Homo sapiens, NCI-H441, cellular pERK (Thr202/Tyr204) HTRF, NCI-H441 cells
[3] = cellular pERK (Thr202/Tyr204) HTRF, NCI-H441 cells

IC50 [2] [nM] | SMILES | also measured
< 50 | C#Cc1c(F)ccc2cc(N)cc(-c3ncc4c(N5CCOC[C@H]6[C@H](F)[C@H]65)nc(OC[C@]56C/C(=C\F)CN5CCC65CC5)nc4c3C)c12 [Example 430, 5-ethynyl-6-fluoro-4-(4-((1S,7S,8S)-8-fluoro-5-oxa-2-azabicyclo[5.1.0]octan-2-yl)-2-(((R,E)-6-(fluoromethylene)tetrahydrospiro[cyclopropane-1,1′-pyrrolizin]-7a′(5′H)-yl)methoxy)-8-methylpyrido[4,3-d]pyrimidin-7-yl)naphthalen-2-amine] | 
< 50 | C#Cc1c(F)ccc2cc(N)cc(-c3ncc4c(N5CCOC[C@H]6[C@H](F)[C@H]65)nc(OC[C@]56C/C(=C/F)CN5CCC65CC5)nc4c3C)c12 [Example 431, 5-Ethynyl-6-fluoro-4-(4-((1S,7S,8S)-8-fluoro-5-oxa-2-azabicyclo[5.1.0]octan-2-yl)-2-(((R,Z)-6′-(fluoromethylene)tetrahydrospiro[cyclopropane-1,1′-pyrrolizin]-7a′(5′H)-yl)methoxy)-8-methylpyrido[4,3-d]pyrimidin-7-yl)naphthalen-2-amine] | 

The next lines start with the compound.

SMILES | IC50 [2] [nM] | also measured
C=C1CN2CCC[C@@]2(COc2nc(N3CCOC[C@H]4[C@H](F)[C@H]43)c3cc(C(F)(F)F)c(-c4ccc(F)c5sc(N)c(C#N)c45)c(F)c3n2)C1 (atropisomer, axis not shown) [Example 433, 2-amino-7-fluoro-4-((R)-8-fluoro-4-((1S,7S,8S)-8-fluoro-5-oxa-2-azabicyclo[5.1.0]octan-2-yl)-2-(((S)-2-methylenetetrahydro-1H-pyrrolizin-7a(5H)-yl)methoxy)-6-(trifluoromethyl)quinazolin-7-yl)benzo[b]thiophene-3-carbonitrile] |  | IC50 [1]: 500 to 10000 nM
[2H]C([2H])(Oc1nc(N2CCCC[C@H]3[C@H](F)[C@H]32)c2cnc(-c3cc(O)cc4ccc(F)c(C#C)c34)c(F)c2n1)[C@@]12CCCN1[C@H](C)[C@H](F)C2 [Example 474, 5-ethynyl-6-fluoro-4-(8-fluoro-2-(((2R,3R,7aS)-2-fluoro-3-methyltetrahydro-1H-pyrrolizin-7a(5H)-yl)methoxy-d2)-4-((1S,7R,8S)-8-fluoro-2-azabicyclo[5.1.0]octan-2-yl)pyrido[4,3-d]pyrimidin-7-yl)naphthalen-2-ol] |  | IC50 [1]: < 50 nM
[2H]C([2H])(Oc1nc(N2CCOC[C@H]3[C@H](F)[C@H]32)c2cc(F)c(-c3cc(N)cc4ccc(F)c(C#C)c34)c(F)c2n1)[C@@]12CCCN1C[C@H](F)C2 (atropisomer, axis not shown; (aS)) [Example 391, 4-((R)-6,8-difluoro-4-((1S,7S,8S)-8-fluoro-5-oxa-2-azabicyclo[5.1.0]octan-2-yl)-2-(((2R,7aS)-2-fluorotetrahydro-1H-pyrrolizin-7a(5H)-yl)methoxy-d2)quinazolin-7-yl)-5-ethynyl-6-fluoronaphthalen-2-amine] |  | IC50 [3]: < 50 nM
[2H]C([2H])(Oc1nc(N2CCOC[C@H]3[C@H](F)[C@H]32)c2cc(F)c(-c3ccc(F)c4sc(N)c(C#N)c34)c(F)c2n1)[C@@]12CCCN1C[C@H](F)C2 (atropisomer, axis not shown; (aS)) [Example 356, 2-amino-4-((R)-6,8-difluoro-4-((1S,7S,8S)-8-fluoro-5-oxa-2-azabicyclo[5.1.0]octan-2-yl)-2-(((2R,7aS)-2-fluorotetrahydro-1H-pyrrolizin-7a(5H)-yl)methoxy-d2)quinazolin-7-yl)-7-fluorobenzo[b]thiophene-3-carbonitrile] |  | IC50 [3]: 500 to 10000 nM
[2H]C([2H])(Oc1nc(N2CCOC[C@H]3[C@H](F)[C@H]32)c2cnc(-c3cc(N)c(F)c(Cl)c3C(F)(F)F)c(F)c2n1)[C@@]12CCCN1C[C@H](F)C2 [Example 289, 3-chloro-2-fluoro-5-(8-fluoro-4-((1S,7S,8S)-8-fluoro-5-oxa-2-azabicyclo[5.1.0]octan-2-yl)-2-(((2R,7aS)-2-fluorotetrahydro-1H-pyrrolizin-7a(5H)-yl)methoxy-d2)pyrido[4,3-d]pyrimidin-7-yl)-4-(trifluoromethyl)aniline] | < 50 | 
[2H]C([2H])(Oc1nc(N2CCOC[C@H]3[C@H](F)[C@H]32)c2cc(F)c(-c3ccc(F)c4sc(N)c(C#N)c34)c(C)c2n1)[C@@]12CCCN1C[C@H](F)C2 (atropisomer, axis not shown; (aS)) [Example 451, 2-amino-7-fluoro-4-((R)-6-fluoro-4-((1S,7S,8S)-8-fluoro-5-oxa-2-azabicyclo[5.1.0]octan-2-yl)-2-(((2R,7aS)-2-fluorotetrahydro-1H-pyrrolizin-7a(5H)-yl)methoxy-d2)-8-methylquinazolin-7-yl)benzo[b]thiophene-3-carbonitrile] |  | IC50 (cellular pERK HTRF, NCI-H441 (KRAS G12V) cells): < 50 nM
[2H]C([2H])(Oc1nc(N2CCOC[C@H]3[C@H](F)[C@H]32)c2cnc(-c3cccc4ccc(C(F)(F)F)c(C#C)c34)c(F)c2n1)[C@@]12CCCN1C[C@H](F)C2 [Example 332, (1S,7S,8S)-2-(7-(8-ethynyl-7-(trifluoromethyl)naphthalen-1-yl)-8-fluoro-2-(((2R,7aS)-2-fluorotetrahydro-1H-pyrrolizin-7a(5H)-yl)methoxy-d2)pyrido[4,3-d]pyrimidin-4-yl)-8-fluoro-5-oxa-2-azabicyclo[5.1.0]octane] | 50 to 500 | 
C#Cc1c(F)ccc2cc(N)cc(-c3ncc4c(N5CCOC[C@@H]6[C@@H](Cl)[C@@H]65)nc(OC[C@@H]5CCCN5C)nc4c3F)c12 [Example 301, 4-(4-((1R,7R,8R)-8-chloro-5-oxa-2-azabicyclo[5.1.0]octan-2-yl)-8-fluoro-2-(((S)-1-methylpyrrolidin-2-yl)methoxy)pyrido[4,3-d]pyrimidin-7-yl)-5-ethynyl-6-fluoronaphthalen-2-amine] | 50 to 500 | 
C#Cc1c(F)ccc2cc(N)cc(-c3ncc4c(N5CCOC[C@H]6[C@H](F)[C@H]65)nc(OC[C@@]56CCCN5C/C(=C\F)C6)nc4c3C)c12 [Example 427, 5-ethynyl-6-fluoro-4-(4-((1S,7S,8S)-8-fluoro-5-oxa-2-azabicyclo[5.1.0]octan-2-yl)-2-(((S,Z)-2-(fluoromethylene)tetrahydro-1H-pyrrolizin-7a(5H)-yl)methoxy)-8-methylpyrido[4,3-d]pyrimidin-7-yl)naphthalen-2-amine] | < 50 | 
[2H]C([2H])(Oc1nc(N2CCCC[C@H]3[C@H](F)[C@H]32)c2cnc(-c3cccc4ccc(F)c(OCF)c34)c(F)c2n1)[C@@]12CCCN1C[C@H](F)C2 [Example 73, 8-Fluoro-7-(7-fluoro-8-(fluoromethoxy)naphthalen-1-yl)-4-((1S,7R,8S)-8-fluoro-2-azabicyclo[5.1.0]octan-2-yl)-2-(((2R,7aS)-2-fluorotetrahydro-1H-pyrrolizin-7a(5H)-yl)methoxy-d2)pyrido[4,3-d]pyrimidine] |  | IC50 (Homo sapiens, NCI-H441, pERK HTRF, NCI-H441 cells (KRAS G12V)): < 50 nM
[2H]C([2H])(Oc1nc(N2CCCO[C@H]3[C@H](F)[C@H]32)c2cnc(-c3cc(N)cc4c(F)c(F)c(F)c(C#C)c34)c(F)c2n1)[C@@]12CCCN1C[C@H](F)C2 [Example 115, 5-ethynyl-6,7,8-trifluoro-4-(8-fluoro-4-((1R,7S,8R)-8-fluoro-2-oxa-6-azabicyclo[5.1.0]octan-6-yl)-2-(((2R,7aS)-2-fluorotetrahydro-1H-pyrrolizin-7a(5H)-yl)methoxy-d2)pyrido[4,3-d]pyrimidin-7-yl)naphthalen-2-amine] | < 50 | 
